Results on six compounds are retold here after patent US20110038885A1, “CHEMOKINE ANALOGS” (priority 2007, published 2011).

For test [1], the system named is IL-8. Description: In vitro chemotaxis, inhibition v IL-8. It is filed as cell-based, human. Also noted: concentration or dose not given beside the values. The procedure, abridged:
(§1)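 Trans-well migration toward IL-8 or MCP-1 placed below, with agent added to THP-1 cells (10^4-10^6) in the top well and incubation at 37° C (e.g. 4 hours). MTT absorbance at 595 nm, interpolated on a cell standard curve, gives migrated cell numbers; TGFβ-type negative control and cytotoxicity check included.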

The subject of test [2] is MCP-1. The test can be described thus: In vitro chemotaxis (trans-well migration) v MCP-1. It is filed as cell-based, human. The procedure, abridged: as §1

What is called EC50 is the concentration that produces a half-maximal response.

SMILES strings stand for the structures. Bridge positions count the residues as written; N and C are the ends. Square brackets hold non-standard residues; d marks the D form. Peptide text beside a SMILES is read from it. * marks the point of attachment. Ac6c = NC1(C(=O)O)CCCCC1; Octanoyl = CCCCCCCC(=O)*; Dap = NC[C@H](N)C(=O)O; X2 = CCCCCCO* Bounds are passed on as bounds.

As to `CC(=O)N[C@H]1CSSC[C@@H](C(N)=O)NC(=O)[C@H](CCC(N)=O)NC(=O)[C@H](Cc2c[nH]c3ccccc23)NC(=O)[C@H](CCCCN)NC(=O)[C@H](CCC(N)=O)NC(=O)[C@H](CCCCN)NC(=O)[C@@H]2CCCN2C(=O)[C@H](CC(=O)O)NC(=O)C2(CCCCC2)NC1=O` [Example 156, Ac-c(Cys-A6c-Asp-Pro-Lys-Gln-Lys-Trp-Gln-Cys)-NH2] (Ac-C[Ac6c]DPKQKWQC-NH2; disulfide 1-10), the “v IL-8 inhibition (%)” value in test [1] is 3.1%. The compound also returned an EC50 in test [2] greater than 1000 nM.
The like results for `CC[C@H](C)[C@@H]1NC(=O)[C@H](Cc2c[nH]c3ccccc23)NC(=O)[C@H](CCCCN)NC(=O)[C@H](CCC(N)=O)NC(=O)[C@H](CCCCN)NC(=O)[C@@H](NC(C)=O)CSSC[C@@H](C(=O)N2CCC[C@@H]2C(=O)N[C@H](CC(=O)O)C(=O)N[C@H](CC(C)C)C(N)=O)NC(=O)[C@H](CCC(N)=O)NC1=O` [Example 157, Ac-c(Cys-Lys-Gln-Lys-Trp-Ile-Gln-Cys)-D-Pro-D-Asp-D-Leu-NH2] (Ac-CKQKWIQC[dP][dD][dL]-NH2; disulfide 1-8) were, in that order, −15% and greater than 1000 nM.
The like results for `CC[C@H](C)[C@@H]1NC(=O)[C@H](Cc2c[nH]c3ccccc23)NC(=O)[C@H](CCCCN)NC(=O)[C@H](CCC(N)=O)NC(=O)[C@H](CCCCN)NC(=O)[C@@H]2CCCN2C(=O)[C@@H](NC(C)=O)CSSC[C@@H](C(=O)N[C@H](CC(=O)O)C(=O)N[C@H](CC(C)C)C(N)=O)NC(=O)[C@H](CCC(N)=O)NC1=O` [Example 158, Ac-c(Cys-Pro-Lys-Gln-Lys-Trp-Ile-Gln-Cys)-D-Asp-D-Leu-NH2] (Ac-CPKQKWIQC[dD][dL]-NH2; disulfide 1-9) were, in that order, −17.9% and greater than 1000 nM.
The like results for `CCCCCCCC(=O)N[C@@H](CN)C(=O)N[C@@H]1CSSC[C@H](C(N)=O)NC(=O)[C@@H](CC(C)C)NC(=O)[C@@H](CC(=O)O)NC(=O)[C@H]2CCCN2C(=O)[C@@H](CCCCN)NC(=O)[C@@H](CCC(N)=O)NC(=O)[C@@H](CCCCN)NC(=O)[C@@H](Cc2c[nH]c3ccccc23)NC(=O)[C@@H]([C@H](C)CC)NC(=O)[C@@H](CCC(N)=O)NC1=O` [Example 160, Octanoyl-Dap-c(D-Cys-D-Gln-D-Ile-D-Trp-D-Lys-D-Gln-D-Lys-D-Pro-D-Asp-D-Leu-D-Cys)-NH2] (Octanoyl-[Dap][dC][dQ][dI][dW][dK][dQ][dK][dP][dD][dL][dC]-NH2; disulfide 2-12) were, in that order, 100.2% and 25 nM.
On to `CCCCCCOC(=O)C[C@H]1NC(=O)[C@H]2CCCN2C(=O)[C@@H](CCCCN)NC(=O)[C@@H](CCC(N)=O)NC(=O)[C@@H](CCCCN)NC(=O)[C@@H](Cc2c[nH]c3ccccc23)NC(=O)[C@@H]([C@H](C)CC)NC(=O)[C@@H](CCC(N)=O)NC(=O)[C@H](N)CSSC[C@H](C(N)=O)NC(=O)[C@@H](CC(C)C)NC1=O` [Example 161, c(D-Cys-D-Gln-D-Ile-D-Trp-D-Lys-D-Gln-D-Lys-D-Pro-D-Asp(1-hexanol)-D-Leu-D-Cys)-NH2] (H-[dC][dQ][dI][dW][dK][dQ][dK][dP][dD](X2)[dL][dC]-NH2; disulfide 1-11), for which the “v IL-8 inhibition (%)” value in test [1] came to 99.8%. For the same compound, the EC50 in test [2] is 8 nM.
As to `CC[C@H](C)[C@@H]1NC(=O)[C@H](Cc2c[nH]c3ccccc23)NC(=O)[C@H](CCCCN)NC(=O)[C@H](CCC(N)=O)NC(=O)[C@H](CCCCN)NC(=O)[C@@H]2CCCN2C(=O)[C@H](CC(=O)O)NC(=O)[C@H](CC(C)C)NC(=O)[C@@H](NC(=O)[C@@H](CC(=O)O)NC(=O)[C@H](N)CCCCN)CSSC[C@@H](C(N)=O)NC(=O)[C@H](CCC(N)=O)NC1=O` [Example 167, D-Lys-D-Asp-c(Cys-Leu-Asp-Pro-Lys-Gln-Lys-Trp-Ile-Gln-Cys)-NH2] (H-[dK][dD]CLDPKQKWIQC-NH2; disulfide 3-13), in test [1], the “v IL-8 inhibition (%)” value turned out to be 99.6%. Moreover, in test [2], the EC50 came out at 25 nM.
